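These data come from cells grown in 96-well plates and exposed to compound for 48 hours at five concentrations. GI50: concentration for 50% inhibition of growth. Definition used: TGI = concentration required for complete inhibition of growth.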

The test system of one experiment is TK-10 renal. The experiment can be described thus: inhibition of tumour cell growth, NCI panel, 48 h.
Take `Nc1nc(-n2c(-c3ccccc3)nc3c(Br)cc(Br)cc3c2=O)nnc1-c1cccc(Cl)c1Cl`: the GI50 was 3960 nM and the TGI amounted to 20.8 µM.

With `NS(=O)(=O)OC[C@@H]1C[C@@H](n2ccc3c(NC4CCc5ccccc54)ncnc32)C[C@@H]1O` (stereo partly specified), the GI50 is 14100 nM and the TGI is over 100 µM.

For the compound `FC(F)(F)c1cccc(Nc2nc(-c3ccccc3)nc3ncccc23)c1`, the GI50 was 2610 nM and the TGI worked out at 10.5 µM.

For `COC(=O)/C=C1\S/C(=N\NC(=O)c2cc3ccc2/C=C\c2ccc(cc2)/C=C\3)N(c2ccccc2)C1=O`, the GI50 is 2030 nM and the TGI came to 5.6 µM.

Compound `COc1cc2cc(OC)c3cc4c(cc3c2c(OC)c1OC)OCO4` registered a TGI of over 84.4 µM.

As for `COc1cc2c(c(OC)c1OC)-c1ccc(NNC(N)=S)c(=O)cc1[C@@H](NC(C)=O)CC2`, the GI50 is over 26000 nM and the TGI was over 100 µM.

Turning to `COc1cc2c(c3oc4c(O)cccc4c(=O)c13)CC(C(C)(O)CO)O2` (stereo unspecified), the TGI was over 100 µM.

As for `COc1cc2c(cc1OCCCCN1CCN(CC(=O)Nc3ccc(Cl)cc3C(=O)c3ccccc3Cl)CC1)N=CC1CCCN1C2=O` (stereo unspecified), the GI50 is 311 nM and the TGI is 0.841 µM.

For the next experiment, the system named is PC-3 prostate. The experiment can be described thus: inhibition of tumour cell growth, NCI panel, 48 h.
Turning to `CCOC1Oc2ccccc2C(=O)/C1=C/Nc1ccc(C(C)=O)cc1` (stereo unspecified), the GI50 is 25400 nM and the TGI stood at 93.3 µM.

On to `COC1/C=C/OC2(C)Oc3c(C)c(O)c4c(O)c(c(/C=N/Nc5ccc([N+](=O)[O-])cc5[N+](=O)[O-])c(O)c4c3C2=O)NC(=O)C(C)=C/C=C/C(C)C(O)C(C)C(O)C(C)C(OC(C)=O)C1C` (stereo unspecified), for which the GI50 was 1340 nM and the TGI worked out at 3.92 µM.

For the compound `O=C(Nc1ccc(F)cc1)Nc1ccc(Cl)c([N+](=O)[O-])c1`, the GI50 was 1600 nM and the TGI was determined as 11.1 µM.

In the case of `COc1ccc2c(c1)sc1nc(-c3ccccc3)c(-c3cccc4ccccc34)n12`, the GI50 is 500 nM and the TGI was over 100 µM.

As for `C[N+](C)(C)CC(=O)N/N=C(/CC(=O)CC(C1=C(O)c2ccccc2OC1)c1ccccc1)C(=O)Nc1cccc(Cl)c1` (stereo unspecified), the TGI was over 100 µM.

As for `OCCN(CCO)c1ncnc2c1ncn2Cc1ccc(CCl)cc1`, the GI50 is 14000 nM and the TGI worked out at 33.7 µM.

`Cc1ccc(NC(=O)Nc2ccc(-c3cccnc3)cc2N2CCC(CO)CC2)cc1`: the GI50 is 5600 nM and the TGI was over 100 µM.

For `Cc1cc(-c2nc(C(=O)Nc3cc4oc(N5CCOCC5)nc4nc3N3CC[C@@H](O)C3)co2)ccn1`, the GI50 was 26900 nM and the TGI was over 100 µM.

`COc1cnc2c(c1)C(=O)c1c-2n(CCCN2CCOCC2)c(=O)c2cc(F)ccc12`: the GI50 is 369 nM and the TGI is over 100 µM.

Take `Nc1nc(-n2c(-c3ccccc3)nc3c(Br)cc(Br)cc3c2=O)nnc1-c1cccc(Cl)c1Cl`: the GI50 is 26600 nM and the TGI was over 100 µM.

In the case of `NS(=O)(=O)OC[C@@H]1C[C@@H](n2ccc3c(NC4CCc5ccccc54)ncnc32)C[C@@H]1O` (stereo partly specified), the GI50 is 17000 nM and the TGI was over 100 µM.

As to `FC(F)(F)c1cccc(Nc2nc(-c3ccccc3)nc3ncccc23)c1`, the GI50 is 3340 nM and the TGI worked out at 13.2 µM.

On to `C=CCOc1ccc2c(C)cc(=O)oc2c1C`, for which the TGI is over 100 µM.

For the compound `COC(=O)/C=C1\S/C(=N\NC(=O)c2cc3ccc2/C=C\c2ccc(cc2)/C=C\3)N(c2ccccc2)C1=O`, the GI50 was 1710 nM and the TGI turned out to be 3.63 µM.

For `COc1cc2c(c(OC)c1OC)-c1ccc(NNC(N)=S)c(=O)cc1[C@@H](NC(C)=O)CC2`, the GI50 was 290 nM and the TGI was over 100 µM.

For `COc1cc2c(c3oc4c(O)cccc4c(=O)c13)CC(C(C)(O)CO)O2` (stereo unspecified), the TGI was over 100 µM.

For `COc1cc2c(cc1OCCCCN1CCN(CC(=O)Nc3ccc(Cl)cc3C(=O)c3ccccc3Cl)CC1)N=CC1CCCN1C2=O` (stereo unspecified), the GI50 is 238 nM and the TGI stood at 0.547 µM.

A further experiment has as its system A549 NSCLC. Put plainly: inhibition of tumour cell growth, NCI panel, 48 h.
For `CCOC1Oc2ccccc2C(=O)/C1=C/Nc1ccc(C(C)=O)cc1` (stereo unspecified), the GI50 was 50.3 µM and the TGI was over 100 µM.

Regarding `COC1/C=C/OC2(C)Oc3c(C)c(O)c4c(O)c(c(/C=N/Nc5ccc([N+](=O)[O-])cc5[N+](=O)[O-])c(O)c4c3C2=O)NC(=O)C(C)=C/C=C/C(C)C(O)C(C)C(O)C(C)C(OC(C)=O)C1C` (stereo unspecified), the GI50 was 8.01 µM and the TGI was 17.3 µM.

`O=C(Nc1ccc(F)cc1)Nc1ccc(Cl)c([N+](=O)[O-])c1`: the GI50 is 3.09 µM and the TGI amounted to 16.3 µM.

As to `COc1ccc2c(c1)sc1nc(-c3ccccc3)c(-c3cccc4ccccc34)n12`, the GI50 was 0.816 µM and the TGI is over 100 µM.

`C[N+](C)(C)CC(=O)N/N=C(/CC(=O)CC(C1=C(O)c2ccccc2OC1)c1ccccc1)C(=O)Nc1cccc(Cl)c1` (stereo unspecified): the TGI is over 100 µM.

For `OCCN(CCO)c1ncnc2c1ncn2Cc1ccc(CCl)cc1`, the GI50 is 18.3 µM and the TGI turned out to be 53.7 µM.

With `Cc1ccc(NC(=O)Nc2ccc(-c3cccnc3)cc2N2CCC(CO)CC2)cc1`, the GI50 was 3.18 µM and the TGI is over 100 µM.

For `Cc1cc(-c2nc(C(=O)Nc3cc4oc(N5CCOCC5)nc4nc3N3CC[C@@H](O)C3)co2)ccn1`, the GI50 was 28.9 µM and the TGI is over 100 µM.

Take `Nc1nc(-n2c(-c3ccccc3)nc3c(Br)cc(Br)cc3c2=O)nnc1-c1cccc(Cl)c1Cl`: the GI50 was 7.41 µM and the TGI is over 100 µM.

Consider `NS(=O)(=O)OC[C@@H]1C[C@@H](n2ccc3c(NC4CCc5ccccc54)ncnc32)C[C@@H]1O` (stereo partly specified), for which the GI50 was 0.797 µM and the TGI was 47.7 µM.

The compound `C=CCOc1ccc2c(C)cc(=O)oc2c1C` registered a TGI of over 100 µM.

`COC(=O)/C=C1\S/C(=N\NC(=O)c2cc3ccc2/C=C\c2ccc(cc2)/C=C\3)N(c2ccccc2)C1=O`: the GI50 is 2.83 µM and the TGI turned out to be 8.37 µM.

Consider `COc1cc2cc(OC)c3cc4c(cc3c2c(OC)c1OC)OCO4`, for which the TGI is over 95.8 µM.

With `COc1cc2c(c(OC)c1OC)-c1ccc(NNC(N)=S)c(=O)cc1[C@@H](NC(C)=O)CC2`, the GI50 is 3.12 µM and the TGI was over 100 µM.

With `COc1cc2c(c3oc4c(O)cccc4c(=O)c13)CC(C(C)(O)CO)O2` (stereo unspecified), the TGI was over 100 µM.

The values are drawn from PubChem BioAssay (NCI).
